We go through twelve compounds from PubChem BioAssay (NCI).

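Cultured in 96-well plates, cells were exposed to test compound for 48 hours across five concentrations. GI50 marks 50% less growth. TGI marks complete inhibition of growth.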 Some results are limits rather than exact numbers.

Common to all, as to assay: growth of human tumour cells (NCI), 48 h
Test [1] has as its system A549 NSCLC.
For test [2], the system named is OVCAR-8 ovarian.
For test [3], the system named is HL-60(TB) leukemia.
Test [4] concerns SW-620 colon.
Test [5] concerns UACC-62 melanoma.
The subject of test [6] is NCI-H460 lung.
In test [7] the test system is OVCAR-4 ovarian.
In test [8] the test system is NCI-H23 lung.
The subject of test [9] is NCI-H522 lung.

In the case of `Cn1c2ccccc2c(=NNc2ccc(S(=O)(=O)N=C(N)N)cc2)c2ccccc21`, the TGI in test [1] was 26.7 µM; in test [2] it was 26.4 µM; in test [3], 38.6 µM; in test [4], 21.1 µM; in test [5], 32 µM; in test [6], 14 µM. For the same compound, the TGI was 16.8 µM in test [7], 26.9 µM in [8] and 11 µM in test [9].

`O=S1(=O)OCCOS(=O)(=O)C1(Br)Br`: the TGI in [1], in test [2], in test [3], in test [4], in [5] and in test [7] was above 100 µM in each case. The TGI in test [8] and in test [9] was above 100 µM throughout.

For the compound `CC(C)OP(=O)(OC(C)C)/C(=N/Nc1ccc([N+](=O)[O-])cc1)NNC(=O)c1ccccc1`, the TGI in test [1] is above 100 µM; in test [2] it was above 100 µM; in [3] it was 68.9 µM; in [4], above 100 µM; in test [5], 36.5 µM; in test [6], above 100 µM. For the same compound, the TGI is 99.2 µM in test [7], 79.3 µM in test [8] and above 100 µM in test [9].

With `O=C(O)CCC1(CCC(=O)O)CCCCCCCCC(CCC(=O)O)(CCC(=O)O)C(=O)C1=O`, the TGI in test [1], in test [2], in test [3], in [4], in [5] and in test [6] was above 100 µM each time. Besides, the TGI in [7], in test [8] and in test [9] was above 100 µM throughout.

As for `COc1cc2cnc3c4cc(O)ccc4ccc3c2cc1OC`, the TGI in test [1], in test [2], in test [3], in test [4], in [5] and in test [6] was above 100 µM in each case. The TGI is above 100 µM in test [7], above 100 µM in test [8] and 70.9 µM in [9].

Consider `CCOC(OCC)[C@@H]1C[C@@H]2N(O[C@H](OC3CCCC3(c3ccccc3)c3ccccc3)[C@H](OC(C)=O)[C@@]2(CC)Cc2ccc(OC)c(OC)c2)O1` (stereo partly drawn), for which the TGI in [1], in [4], in [5], in test [6], in [7] and in test [8] was above 100 µM throughout. The TGI in test [9] was above 100 µM.

With `O=C(O)c1ccccc1/C=N\N(CCO)C1=NCCN1`, the TGI in [1], in [2], in test [3], in test [4], in test [5] and in test [6] was above 100 µM throughout. Further, the TGI in test [7] and in [8] was above 100 µM throughout.

In the case of `COc1c(N2CCCCC2)c2c(=O)c3ccccc3oc2c2c3ccccc3n(C)c12`, the TGI in test [1], in test [2], in [3], in test [4], in test [5] and in test [6] was above 100 µM in each case. Moreover, the TGI in test [7] and in test [8] was above 100 µM each time.

On to `COc1cc(Cn2c3ccccc3c3cc(C)cc(OC)c32)cc2c1[nH]c1ccccc12`, for which the GI50 in [1] is 23.2 µM; in test [3], 12.3 µM; in [4] it was 13.4 µM; in test [5], 15 µM; in test [6], 10.8 µM; in test [9], 5.43 µM. In addition, the TGI in test [1], in [2], in test [3], in [4], in test [5] and in test [6] was above 25 µM throughout. This compound also had a TGI in test [9] of 21 µM.

As to `C=C1C(=O)O[C@H]2C1C[C@H](O)/C(C)=C/CC[C@@]1(C)O[C@H]21` (stereo partly drawn), the TGI is above 100 µM in test [1]; 37.6 µM in test [2]; 21.6 µM in test [4]; 22.9 µM in test [5]; 30.2 µM in [7]; 37.5 µM in test [8]. The TGI in test [9] worked out at 3.43 µM.

Consider `CC1=C(C(=O)NNC(=O)c2ccccc2O)CC(C(=O)NNC(=O)c2ccccc2O)=C(C)N1`, for which the TGI in [1] is above 100 µM; in test [2] it was above 65.3 µM; in test [4], above 100 µM; in test [5], above 100 µM; in test [6], above 100 µM; in test [7], above 100 µM. Also, the TGI is above 100 µM in test [8] and above 26.7 µM in test [9].

For `O=C(O)c1ccc(Nc2nc3ccc(C(F)(F)F)cc3nc2-c2ccccc2)cc1`, the TGI in test [1] was above 100 µM; in [2], above 100 µM; in test [3] it was 66.3 µM; in test [4] it was above 100 µM; in test [5] it was 35.8 µM; in test [6] it was above 100 µM. Also, the TGI in test [8] and in [9] was above 100 µM each time.
